Assay results from US20070224635A1, “Regulated Stop Codon Readthrough” (Maxygen Holdings, Ltd., priority 2004, published 2007).

What was measured:
[1] = system: UGA stop codon (UGAC tetranucleotide); test: FACS analysis of membrane-anchored protein C after G-418-induced readthrough, PC-UGAC-GPI construct; type: cell-based, Chinese hamster (CHO-K1 cells); conditions: with G-418, background in absence of G-418 about 13%
Description: (§1) As a control, the retroviral vector pLenti6-PC-GPI was used to transfect HEK293FT cells and produce retrovirus particles. After 48 hours, supernatants containing retroviral particles were harvested, filter-sterilized to remove cell debris, and subsequently used to infect CHO-K1 cells. CHO-K1 cells were selected for resistance to the Blasticidin antibiotic at the concentration of 5 mg/l for 10 days. The resulting pools of Blasticidin-resistant cells were transferred into 6 culture flasks for each cell pool and grown to 25% confluency. To induce translational readthrough, the antibiotic G-418 was added to the culture flasks at final concentrations ranging from 12.5 mg/l to 100 mg/l and flasks were incubated for another 48 hours at 37° C. […] Labeled retroviral cell lines were analyzed by FACS for membrane-anchored recombinant PC using a FACScalibur™ (Becton Dickinson) instrument with an excitation wave length of 488 nm and an emission filter of 585 nm.
(§2) The results shown in FIG. 4 illustrate that both cell lines expressing the PC-UAAC-GPI and PC-UGAC-GPI reporters display PC at the cell surface in the presence of aminoglycoside. […] Furthermore, the amount of recombinant membrane-anchored PC is more abundant for the PC-UGAC-GPI construct than for the PC-UAAC-GPI construct, and this applies to all aminoglycoside concentrations that were assessed.

[2] = system: UAA stop codon (UAAC tetranucleotide); test: FACS analysis of membrane-anchored protein C after G-418-induced readthrough, PC-UAAC-GPI construct; type: cell-based, Chinese hamster (CHO-K1 cells); conditions: with G-418, background in absence of G-418 about 0.5%
Description: as §1, §2

UAA stop codon = test: FACS detection of membrane-anchored FVII (FVII-UAA-GPI) in transfected CHO-K1 cells without antibiotic resistance gene; type: cell-based, Chinese hamster (CHO-K1 cells)
Description: The resulting PCR product encompassed the CMV promoter, the b-globin intron, the FVII gene, the UAA stop codon, the GPI anchor signal and the b-globin poly-adenylation signal (FIG. 11). The PCR product was purified and subsequently used to transfect CHO-Kcells with Lipofectamine™ 2000 (Invitrogen) as described above. Additionally, a flask containing CHO-K1 cells was incubated with Lipofectamine™ 2000 but without DNA as a negative control. Five hours after transfection, G-418 was added to the two culture flasks at a final concentration of 100 mg/L to promote translational readthrough. […] Labeled retroviral cell lines were analyzed by FACS for membrane-anchored recombinant FVII using a FACSVantage™ (Becton Dickinson) instrument with an excitation wave length of 488 nm and an emission filter of 585 nm.
Because expression of the recombinant FVII protein is correlated with expression of the FVII-GPI protein fusion arising from aminoglycoside-mediated translational readthrough, transgenic cells can be selected by means of FACS based on membrane-anchored FVII detection. […] Approximately 2500 cells from gate R3 of the transfected cells were sorted as a pool and grown for 9 days in the absence of antibiotic, after which translational readthrough was induced by treating the cells with G-418 at 100 mg/L for 2 days. […]

premature UAG mutation = conditions: cultured mammalian cells; cited from earlier work
[3] = system: nonsense mutation in CFTR; conditions: cell line carrying a nonsense mutation in CFTR; cited from earlier work

CN[C@@H]1[C@@H](O)[C@@H](O[C@@H]2[C@@H](O)[C@H](O[C@H]3O[C@H]([C@@H](C)O)[C@@H](O)[C@H](O)[C@H]3N)[C@@H](N)C[C@H]2N)OC[C@]1(C)O [G-418]
FACS-positive cells (up to) [1]: about 25%
FACS-positive cells (up to) [2]: about 10%
cells positive for FVII display, second FACS round (UAA stop codon; G-418 100 mg/L for 2 days after 9 days growth, non-transfected control 1.1%, FIG. 13): 3.4%
transfected CHO-K1 cells exhibiting fluorescence signals (gate R3), first FACS round (UAA stop codon; G-418 100 mg/L, negative control 0.4%, FIG. 12): 7.1%

NC[C@@H]1O[C@H](O[C@H]2[C@@H](O)[C@H](O[C@@H]3[C@@H](O)[C@H](N)C[C@H](N)[C@H]3O[C@H]3O[C@H](CO)[C@@H](O)[C@H](O)[C@H]3N)O[C@@H]2CO)[C@H](N)[C@@H](O)[C@@H]1O [paromomycin]
synthesis of full-size protein from mutant gene (premature UAG mutation): partially restore the synthesis of a full-size protein

gentamicin
expression of CFTR protein [3]: restore the expression
